The values that follow come from US20080004272A1, “Compositions and methods for modulating gated ion channels” (PainCeptor Pharma Corporation, priority 2006, published 2008).

This experiment deals with T1, ASIC1a (Homo sapiens, UniProt P78348).
T1 sequence (P78348 1-528): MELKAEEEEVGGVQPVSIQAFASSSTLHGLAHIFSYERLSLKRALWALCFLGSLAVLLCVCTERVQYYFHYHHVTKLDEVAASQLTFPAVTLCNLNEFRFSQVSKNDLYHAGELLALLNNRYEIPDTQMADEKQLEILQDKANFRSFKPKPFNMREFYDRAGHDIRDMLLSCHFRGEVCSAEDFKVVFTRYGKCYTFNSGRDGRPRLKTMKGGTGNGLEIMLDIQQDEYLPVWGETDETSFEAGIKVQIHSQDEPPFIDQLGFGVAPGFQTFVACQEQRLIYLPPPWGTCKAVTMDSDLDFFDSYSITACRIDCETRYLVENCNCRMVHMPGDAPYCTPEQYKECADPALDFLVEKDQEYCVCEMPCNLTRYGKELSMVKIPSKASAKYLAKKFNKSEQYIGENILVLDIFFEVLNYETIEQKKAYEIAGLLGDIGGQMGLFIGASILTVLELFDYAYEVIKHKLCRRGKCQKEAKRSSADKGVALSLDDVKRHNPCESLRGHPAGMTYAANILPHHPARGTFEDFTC
Briefly: Calcium imaging of MES-induced calcium response (FLIPR). It is filed as cell-based. The arrangement: host or cells: HEK293. As to conditions: ASIC1a expressing HEK293 cells, MES-induced calcium response; read-out: IC50 (FLIPR). The protocol: […] Confluency of cells should be 80-90% on day of plating. Cells are rinsed with 10 ml of PBS and cells are re-suspended by addition of culture medium and trituration with a 25 ml pipette.
The cells are seeded at a density of approximately 1×10^6 cells/ml (100 μl/well) in black-walled, clear bottom, 96-well plates pre-treated with 10 mg/l poly-D-lysin (75 μl/well for ≧30 min). Plated cells are allowed to proliferate for 24 h before loading with dye.
Fluo-4/AM (1 mg, Molecular Probes) is dissolved in 912 μl DMSO. The Fluo-4/AM stock solution (1 mM) is diluted with culture medium to a final concentration of 2 μM (loading solution).
The culture medium is aspirated from the wells, and 50 μl of the Fluo-4/AM loading solution is added to each well. The cells are incubated at 37° C. for 30 min.
Following the second wash, 100 μl modified Assay Buffer is added to each well and the fluorescence is measured in FLIPR™ or FlexStation™ (Molecular Devices, USA), or any other suitable equipment known to the skilled in the art.
Temperature: Room temperature (20-22° C.)
First addition: 50 μl test solution at a rate of 30 μl/sec and a starting height of […]
Second addition: 50 μl MES solution (20 mM, 5 mM final concentration) at a rate of 35 μl/sec and a starting height of 150 μl.
Reading intervals: pre-incubation−10 sec×7 and 3 sec×3 antagonist phase−3 sec×7 and 10 sec×12
Addition plates (compound test plate and MES plate) are placed on the right and left positions in the FLIPR tray, respectively. Cell plates are placed in the middle position and the ASIC1a program is effectuated. FLIPR will then take the appropriate measurements in accordance with the interval settings above. Fluorescence obtained after stimulation is corrected for the mean basal fluorescence (in modified Assay Buffer).
The MES-induced peak calcium response, in the presence of test substance, is expressed relatively to the MES response alone. Test substances that block the MES-induced calcium response are re-tested in triplicates.
The IC50 is the midpoint of a concentration-inhibition curve. In the case of `CCOc1ccccc1-c1cc2c(c3c1CCN(C)C3)NC(=O)/C2=N/O` [Compound 37], the IC50 is less than 10 µM.

With `CC(=O)Nc1c([N+](=O)[O-])cc(-c2ccccc2)c2c1CN(C)CC2` [Compound 154], the IC50 was greater than 70 µM.

As to `CN1CCc2c(-c3cccc(OC(F)(F)F)c3)cc3c(c2C1)NC(=O)/C3=N/O` [Compound 51], the concentration for half-maximal inhibition (IC50) was greater than 70 µM.

Consider `CN1CCc2c(-c3cc(F)cc(F)c3)cc3c(c2C1)NC(=O)/C3=N\O` [Compound 17], for which the 50% inhibitory concentration (IC50) was less than 10 µM.

Turning to `CCOC(=O)N1CCc2c(Br)ccc(NC(=O)CCl)c2C1` [Compound 145], the IC50 is greater than 70 µM.

For `CN1CCc2c(-c3ccc(F)cc3F)cc3c(c2C1)NC(=O)/C3=N/O` [Compound 50], the IC50 is greater than 70 µM.

Turning to `CN1CCc2c(-c3ccccc3)ccc(NC(=O)CC(=O)O)c2C1` [Compound 153], the half-inhibitory concentration (IC50) is greater than 70 µM.

Consider `CC(C)Oc1cccc(-c2cc3c(c4c2CCN(C)C4)NC(=O)/C3=N\O)c1` [Compound 46], for which the concentration for half-maximal inhibition (IC50) lay in the range of 40 to 60 µM.

Consider `COc1cc(F)ccc1-c1cc2c(c3c1CCN(C)C3)NC(=O)/C2=N/O` [Compound 42], for which the half-maximal inhibitory concentration (IC50) is less than 10 µM.

`COc1c2c(c(C(C)=O)c3c1OCO3)CCN(C)C2` [Compound 33]: the IC50 is greater than 70 µM.

For `O=C1Nc2c(cc(-c3ccccc3)c3c2CCCC3)/C1=N/O` [Compound 114], the half-inhibitory concentration (IC50) is greater than 70 µM.

For `C#CN1C(=O)C(=NO)c2cc(-c3ccccc3)c3c(c21)CN(CC)CC3` [Compound 72, 8-Ethyl-1-ethynyl-5-phenyl-6,7,8,9-tetrahydro-1H-pyrrolo[3,2-h]isoquinoline-2,3-dione 3-oxime], the half-maximal inhibitory concentration (IC50) was less than 10 µM.

Regarding `C/C(=N\O)c1c2c(c(O)c3c1OCO3)CN(C)CC2` [Compound 57], the IC50 is greater than 70 µM.

As to `CC(=O)c1ccccc1-c1cc2c(c3c1CCN(C)C3)NC(=O)/C2=N/O` [Compound 32], the half-maximal inhibitory concentration (IC50) is greater than 70 µM.

In the case of `CN1CCc2c(-c3ccc(S(=O)(=O)N4CCCCC4)cc3)cc3c(c2C1)NC(=O)C3=NO` [Compound 5, 8-Methyl-5-[4-(piperidine-1-sulfonyl)-phenyl]-6,7,8,9-tetrahydro-1H-pyrrolo[3,2-h]isoquinoline-2,3-dione 3-oxime], the IC50 was less than 25 µM.

`CN1CCc2c(-c3ccccc3Cl)cc3c(c2C1)NC(=O)/C3=N/O` [Compound 22]: the half-maximal inhibitory concentration (IC50) was 35 to 45 µM.

Turning to `CN1CCc2c(-c3ccc(S(=O)(=O)N4CCOCC4)cc3)cc3c(c2C1)NC(=O)C3=NO` [Compound 2, 8-methyl-5-[4-(morpholine-4-sulfonyl)-phenyl]-6,7,8,9-tetrahydro-1H-pyrrolo[3,2-h]isoquinoline-2,3-dione 3-oxime], the 50% inhibitory concentration (IC50) was greater than 70 µM.

As for `CN1CCc2c(-c3cccnc3)cc3c(c2C1)NC(=O)/C3=N/O` [Compound 27], the concentration for half-maximal inhibition (IC50) is greater than 70 µM.

On to `CN1CCc2c(-c3ccc(F)c(F)c3)cc3c(c2C1)NC(=O)/C3=N\O` [Compound 16], for which the IC50 was less than 10 µM.

For `CN1CCc2c(-c3ccncc3)cc3c(c2C1)NC(=O)/C3=N/O` [Compound 55], the IC50 is greater than 70 µM.

With `CN1CCc2c(-c3cc(C(F)(F)F)cc(C(F)(F)F)c3)cc3c(c2C1)NC(=O)/C3=N\O` [Compound 23], the concentration for half-maximal inhibition (IC50) fell in the range of 40 to 60 µM.

For `CCOc1cccc(-c2cc3c(c4c2CCN(C)C4)NC(=O)/C3=N\O)c1` [Compound 25], the IC50 fell in the range of 40 to 60 µM.

As for `CN1CCc2c(-c3ccc(C(=O)N(C)C)cc3)cc3c(c2C1)NC(=O)C3=NO` [Compound 3, 4-(3-Hydroxyimino-8-methyl-2-oxo-2,3,6,7,8,9-hexahydro-1H-pyrrolo[3,2-h]isoquinolin-5-yl)-N,N-dimethyl-benzamide], the half-inhibitory concentration (IC50) was greater than 70 µM.

Regarding `CN1CCc2c(-c3cccc(C(F)(F)F)c3)cc3c(c2C1)NC(=O)/C3=N/O` [Compound 49], the half-inhibitory concentration (IC50) was greater than 70 µM.

On to `Cc1cc(F)ccc1-c1cc2c(c3c1CCN(C)C3)NC(=O)/C2=N/O` [Compound 52], for which the 50% inhibitory concentration (IC50) is greater than 70 µM.

Turning to `Cc1ccccc1-c1cc2c(c3c1CCN(C)C3)NC(=O)/C2=N/O` [Compound 41], the half-maximal inhibitory concentration (IC50) is less than 10 µM.

As to `COc1ccccc1-c1cc2c(c3c1CCN(C)C3)NC(=O)/C2=N\O` [Compound 34], the 50% inhibitory concentration (IC50) was less than 10 µM.

For `CN1CCc2c(-c3cccc([N+](=O)[O-])c3)cc3c(c2C1)NC(=O)/C3=N\O` [Compound 29], the IC50 is greater than 70 µM.

Turning to `CN1CCc2c(-c3ccc(F)c(Cl)c3)cc3c(c2C1)NC(=O)/C3=N\O` [Compound 14], the half-inhibitory concentration (IC50) was less than 10 µM.

Turning to `Cc1cc(-c2cc3c(c4c2CCN(C)C4)NC(=O)/C3=N/O)ccc1F` [Compound 15], the half-maximal inhibitory concentration (IC50) is less than 10 µM.

Consider `COc1ncccc1-c1cc2c(c3c1CCN(C)C3)NC(=O)/C2=N/O` [Compound 45], for which the IC50 was less than 10 µM.

`CN1CCc2c(-c3ccsc3C=O)cc3c(c2C1)NC(=O)/C3=N/O` [Compound 56]: the half-maximal inhibitory concentration (IC50) is greater than 70 µM.

Regarding `CO/N=C1/C(=O)Nc2c1cc(-c1ccccc1OC)c1c2CN(C)CC1` [Compound 21], the 50% inhibitory concentration (IC50) lay in the range of 20 to 30 µM.

For the compound `CN1CCc2c(-c3cccc(C#N)c3)cc3c(c2C1)NC(=O)/C3=N\O` [Compound 28], the half-inhibitory concentration (IC50) was greater than 70 µM.

Consider `CN1CCc2c(-c3cccc(O)c3)cc3c(c2C1)NC(=O)/C3=N/O` [Compound 31], for which the IC50 is greater than 70 µM.

Take `CN1CCc2c(-c3cccc(F)c3)cc3c(c2C1)NC(=O)/C3=N\O` [Compound 36]: the IC50 was less than 10 µM.

For `CN1CCc2c(-c3ccc(OC(F)(F)F)cc3)cc3c(c2C1)NC(=O)/C3=N/O` [Compound 54], the IC50 was greater than 70 µM.

As to `CN1CCc2c(-c3ccccc3S(=O)(=O)N(C)C)cc3c(c2C1)NC(=O)/C3=N\O` [Compound 223], the IC50 is greater than 70 µM.

For `CC(=O)c1ccc(-c2cc3c(c4c2CCN(C)C4)NC(=O)/C3=N/O)s1` [Compound 26], the half-maximal inhibitory concentration (IC50) was greater than 70 µM.

`CN1CCc2c(-c3cc(F)ccc3F)cc3c(c2C1)NC(=O)/C3=N/O` [Compound 39]: the IC50 is less than 10 µM.

Take `CS(=O)(=O)N1CCc2c(-c3ccc(Cl)cc3)cc3c(c2C1)NC(=O)C3=NO` [Compound 71, 5-(4-Chloro-phenyl)-8-methanesulfonyl-6,7,8,9-tetrahydro-1H-pyrrolo[3,2-h]isoquinoline-2,3-dione 3-oxime]: the IC50 is greater than 70 µM.

As for `CN1CCc2c(-c3ccccc3Oc3ccccc3)cc3c(c2C1)NC(=O)/C3=N/O` [Compound 44], the IC50 is less than 10 µM.

Take `CN1CCc2c(cccc2-c2ccccc2)C1` [Compound 173]: the concentration for half-maximal inhibition (IC50) was greater than 70 µM.

For `CN1CCc2c(-c3ccccc3F)cc3c(c2C1)NC(=O)/C3=N/O` [Compound 19], the IC50 is less than 10 µM.

On to `CN1CCc2c(-c3ccccc3)cc3c(c2C1)NC(=O)/C3=N/OC1O[C@H](CO)[C@@H](O)[C@H](O)[C@H]1O` (stereo partly shown) [Compound 59], for which the 50% inhibitory concentration (IC50) was greater than 70 µM.

For `CN1CCc2c(-c3ccc(S(=O)(=O)N4CCN(CCO)CC4)cc3)cc3c(c2C1)NC(=O)C3=NO` [Compound 4, 5-{4-[4-(2-Hydroxy-ethyl)-piperazine-1-sulfonyl]-phenyl}-8-methyl-6,7,8,9-tetrahydro-1H-pyrrolo[3,2-h]isoquinoline-2,3-dione 3-oxime], the IC50 was greater than 70 µM.

As to `COc1c(F)cc(F)cc1-c1cc2c(c3c1CCN(C)C3)NC(=O)/C2=N/O` [Compound 60], the IC50 is greater than 70 µM.

For the compound `CN1CCc2c(-c3ccoc3)cc3c(c2C1)NC(=O)/C3=N/O` [Compound 69], the IC50 was less than 20 µM.

Turning to `CN1CCc2c(-c3ccccc3C(F)(F)F)cc3c(c2C1)NC(=O)/C3=N/O` [Compound 18], the IC50 is less than 20 µM.
